Laboratory results taken from PubChem BioAssay AID1845203 (Molecular Pharmacology Branch, DTP, NCI, 2023).

System: G-401 tumor spheroids, viability % test/control
Test: Anticancer human tumor G-401 cell line growth inhibition;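 also: spheroids exposed to compound for 7 days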;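 as to viability, T/C: 100% = DMSO vehicle-treated spheroids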
Details: spheroids with HUVEC and MSC; for IC50: curve of first compound; for viability, T/C: stronger effect = lower value
Procedure, shortened: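 Single agents and combinations were tested on spheroids built from tumor cells plus HUVEC and hMSC, at half-log dilutions starting at or near clinical Cmax, else 10 microM; final DMSO 0.25% (v/v).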

[1] = second compound 0.003 µM, first compound 0.0316 µM
[2] = second compound 0.003 µM, first compound 0.1 µM
[3] = second compound 0.003 µM, first compound 0.316 µM
[4] = second compound 0.003 µM, first compound 1 µM
[5] = second compound 0.003 µM, first compound 3.16 µM
[6] = second compound 0.003 µM, first compound 10 µM
[7] = second compound 0.00949 µM, first compound 0.0316 µM
[8] = second compound 0.00949 µM, first compound 0.1 µM
[9] = second compound 0.00949 µM, first compound 0.316 µM
[10] = second compound 0.00949 µM, first compound 1 µM
[11] = second compound 0.00949 µM, first compound 3.16 µM
[12] = second compound 0.00949 µM, first compound 10 µM
[13] = second compound 0.03 µM, first compound 0.0316 µM
[14] = second compound 0.03 µM, first compound 0.1 µM
[15] = second compound 0.03 µM, first compound 0.316 µM
[16] = second compound 0.03 µM, first compound 1 µM
[17] = second compound 0.03 µM, first compound 3.16 µM
[18] = second compound 0.03 µM, first compound 10 µM
[19] = second compound 0.0949 µM, first compound 0.0316 µM
[20] = second compound 0.0949 µM, first compound 0.1 µM
[21] = second compound 0.0949 µM, first compound 0.316 µM
[22] = second compound 0.0949 µM, first compound 1 µM
[23] = second compound 0.0949 µM, first compound 3.16 µM
[24] = second compound 0.0949 µM, first compound 10 µM
[25] = second compound 0.3 µM, first compound 0.0316 µM
[26] = second compound 0.3 µM, first compound 0.1 µM
[27] = second compound 0.3 µM, first compound 0.316 µM
[28] = second compound 0.3 µM, first compound 1 µM
[29] = second compound 0.3 µM, first compound 3.16 µM
[30] = second compound 0.3 µM, first compound 10 µM

COc1cc(C)[nH]c(=O)c1CN1CCc2c(Cl)cc(C(OC)C3COC3)c(Cl)c2C1=O (stereo not given) + CC[C@@]1(O)C(=O)OCc2c1cc1n(c2=O)Cc2cc3c(CN(C)C)c(O)ccc3nc2-1
IC50 (second compound 0.003 µM): 130 nM | IC50 (second compound 0.00949 µM): < 31.6 nM | IC50 (second compound 0.03 µM): < 31.6 nM | IC50 (second compound 0.0949 µM): < 31.6 nM | IC50 (second compound 0.3 µM): < 31.6 nM | viability, T/C [1]: 85.9% | viability, T/C [2]: 52.9% | viability, T/C [3]: 37.2% | viability, T/C [4]: 31.9% | viability, T/C [5]: 29.3% | viability, T/C [6]: 23.8% | viability, T/C [7]: 49.9% | viability, T/C [8]: 44.4% | viability, T/C [9]: 26.1% | viability, T/C [10]: 23.6% | viability, T/C [11]: 23.3% | viability, T/C [12]: 19.6% | viability, T/C [13]: 16% | viability, T/C [14]: 13.7% | viability, T/C [15]: 10.3% | viability, T/C [16]: 11.8% | viability, T/C [17]: 12% | viability, T/C [18]: 9.84% | viability, T/C [19]: 7.14% | viability, T/C [20]: 7.77% | viability, T/C [21]: 7.29% | viability, T/C [22]: 6.9% | viability, T/C [23]: 6.42% | viability, T/C [24]: 6.61% | viability, T/C [25]: 5.24% | viability, T/C [26]: 5.58% | viability, T/C [27]: 5.45% | viability, T/C [28]: 5.13% | viability, T/C [29]: 5.04% | viability, T/C [30]: 4.44%

[2H]c1nc(C)nc([2H])c1-c1cc(NC[C@@H](C)c2cccc3c(C(=O)NC)ccnc23)ncn1 + CC[C@@]1(O)C(=O)OCc2c1cc1n(c2=O)Cc2cc3c(CN(C)C)c(O)ccc3nc2-1
IC50 (second compound 0.003 µM): > 10000 nM | IC50 (second compound 0.00949 µM): < 31.6 nM | IC50 (second compound 0.03 µM): < 31.6 nM | IC50 (second compound 0.0949 µM): < 31.6 nM | IC50 (second compound 0.3 µM): < 31.6 nM | viability, T/C [1]: 83.5% | viability, T/C [2]: 94.3% | viability, T/C [3]: 85.3% | viability, T/C [4]: 82.5% | viability, T/C [5]: 75.9% | viability, T/C [6]: 81% | viability, T/C [7]: 45.4% | viability, T/C [8]: 47.3% | viability, T/C [9]: 47.1% | viability, T/C [10]: 40.1% | viability, T/C [11]: 38.9% | viability, T/C [12]: 30.1% | viability, T/C [13]: 14.6% | viability, T/C [14]: 17.2% | viability, T/C [15]: 14% | viability, T/C [16]: 16.9% | viability, T/C [17]: 15.4% | viability, T/C [18]: 12.3% | viability, T/C [19]: 7.88% | viability, T/C [20]: 8.52% | viability, T/C [21]: 8.28% | viability, T/C [22]: 7.66% | viability, T/C [23]: 7.94% | viability, T/C [24]: 6.94% | viability, T/C [25]: 4.71% | viability, T/C [26]: 4.82% | viability, T/C [27]: 5.34% | viability, T/C [28]: 5% | viability, T/C [29]: 4.69% | viability, T/C [30]: 5.48%

COc1ccc([C@@H](O)c2cc(-c3ncnc4cc(N5CCOCC5)ccc34)c(F)cc2Cl)nn1 + COc1cc2c(cc1O)CCNC21CSC2c3c(OC(C)=O)c(C)c4c(c3C(COC1=O)N1C(O)C3Cc5cc(C)c(OC)c(O)c5C(C21)N3C)OCO4
IC50 (second compound 30 pM): 1000 nM | IC50 (second compound 94.9 pM): 493 nM | IC50 (second compound 0.0003 µM): < 31.6 nM | IC50 (second compound 0.000949 µM): < 31.6 nM | IC50 (second compound 0.003 µM): < 31.6 nM | viability, T/C (second compound 30 pM, first compound 0.0316 µM): 93.1% | viability, T/C (second compound 30 pM, first compound 0.1 µM): 99.2% | viability, T/C (second compound 30 pM, first compound 0.316 µM): 87.4% | viability, T/C (second compound 30 pM, first compound 1 µM): 50% | viability, T/C (second compound 30 pM, first compound 3.16 µM): 16.5% | viability, T/C (second compound 30 pM, first compound 10 µM): 9.53% | viability, T/C (second compound 94.9 pM, first compound 0.0316 µM): 83.8% | viability, T/C (second compound 94.9 pM, first compound 0.1 µM): 83.1% | viability, T/C (second compound 94.9 pM, first compound 0.316 µM): 63.6% | viability, T/C (second compound 94.9 pM, first compound 1 µM): 27.7% | viability, T/C (second compound 94.9 pM, first compound 3.16 µM): 9.96% | viability, T/C (second compound 94.9 pM, first compound 10 µM): 5.51% | viability, T/C (second compound 0.0003 µM, first compound 0.0316 µM): 40% | viability, T/C (second compound 0.0003 µM, first compound 0.1 µM): 29.8% | viability, T/C (second compound 0.0003 µM, first compound 0.316 µM): 18.6% | viability, T/C (second compound 0.0003 µM, first compound 1 µM): 8.98% | viability, T/C (second compound 0.0003 µM, first compound 3.16 µM): 3.1% | viability, T/C (second compound 0.0003 µM, first compound 10 µM): 0.75% | viability, T/C (second compound 0.000949 µM, first compound 0.0316 µM): 5.15% | viability, T/C (second compound 0.000949 µM, first compound 0.1 µM): 5.57% | viability, T/C (second compound 0.000949 µM, first compound 0.316 µM): 2.21% | viability, T/C (second compound 0.000949 µM, first compound 1 µM): 0.51% | viability, T/C (second compound 0.000949 µM, first compound 3.16 µM): 0.05% | viability, T/C (second compound 0.000949 µM, first compound 10 µM): 0.16% | viability, T/C [1]: 0.22% | viability, T/C [2]: 0.25% | viability, T/C [3]: 0.21% | viability, T/C [4]: 0.21% | viability, T/C [5]: 0.16% | viability, T/C [6]: 0.25%
